What was measured:
NOMO1 [1] = test: cell viability relative to DMSO control; higher = less cytotoxic; details: 48 h
How it was run: (§1)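 In 1536-well plates, 5 μl of leukemia cells were seeded per well: 500 cells/well for NOMO1 or SEM and 1000 cells/well for P12-Ichikawa. Each line had first been adapted for at least four passages in each medium. Library compounds in DMSO were pin-dosed at 11 threefold concentrations between 47 μM and 0.79 nM, and CellTiter-Glo One luminescence was read after 48 h at 37°C. Viability is a per-plate percentage relative to DMSO wells, with cell-free wells as background.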

SEM cells [2] = test: as above; details: RPMI 5 mM glucose + 10% FBS, 48 h
How it was run: as §1

NOMO1 [3] = test: AUC of viability dose-response curve (% viability x log10 dose units); higher = less sensitive; details: 48 h
How it was run: (§2)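 Leukemia cells adapted to each medium were seeded in 1536-well plates (500 or 1000 cells/well). They were dosed with library compounds in DMSO at 11 threefold doses, 47 μM to 0.79 nM, for 48 h at 37°C. CellTiter-Glo One luminescence was normalised per plate to DMSO and cell-free wells. Area under the curve was integrated by trapezoidal rule over log10 doses on a four-parameter log-logistic fit; curves exceeding full viability were scaled and curves failing quality control removed.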

P12-Ichikawa = test: as above; details: 48 h
How it was run: as §2

SEM cells [4] = test: as above; details: 48 h
How it was run: as §2

O=C(c1ccc(OCCN2CCCCC2)cc1)c1c(-c2ccc(O)cc2)sc2cc(O)ccc12
NOMO1 [1], HPLM + 10% dialyzed FBS
Details	cell viability [%]
0.000781 µM	121
0.00234 µM	119
0.00702 µM	134
0.0211 µM	135
0.0632 µM	150
0.19 µM	145
0.569 µM	143
1.71 µM	133
5.12 µM	123
15.4 µM	126
46.1 µM	89.9

Details	AUC of viability dose-response curve	cell viability [%]
NOMO1 [3], HPLM + 10% dialyzed FBS	466	–
NOMO1 [3], RPMI 5 mM glucose + 10% FBS	475	–
NOMO1 [3], RPMI 5 mM glucose + 10% dialyzed FBS	462	–
P12-Ichikawa, HPLM + 10% dialyzed FBS	442	–
P12-Ichikawa, RPMI 5 mM glucose + 10% FBS	442	–
P12-Ichikawa, RPMI 5 mM glucose + 10% dialyzed FBS	413	–
SEM cells [2], 0.000781 µM	–	108
SEM cells [2], 0.00234 µM	–	122
SEM cells [2], 0.00702 µM	–	122
SEM cells [2], 0.0211 µM	–	133
SEM cells [2], 0.0632 µM	–	113
SEM cells [2], 0.19 µM	–	42
SEM cells [2], 0.569 µM	–	133
SEM cells [2], 1.71 µM	–	94.1
SEM cells [2], 5.12 µM	–	85.3
SEM cells [2], 15.4 µM	–	117
SEM cells [2], 46.1 µM	–	68.9
SEM cells [4], HPLM + 10% dialyzed FBS	413	–
SEM cells [4], RPMI 5 mM glucose + 10% FBS	415	–
SEM cells [4], RPMI 5 mM glucose + 10% dialyzed FBS	384	–

O=c1[nH]c2ccccc2n1CCCN1CCC(n2c(=O)[nH]c3cc(Cl)ccc32)CC1
NOMO1 [1], RPMI 5 mM glucose + 10% FBS
Details	cell viability [%]
0.000781 µM	124
0.00234 µM	146
0.00702 µM	123
0.0211 µM	134
0.0632 µM	151
0.19 µM	149
0.569 µM	137
1.71 µM	116
5.12 µM	131
15.4 µM	146
46.1 µM	122

AUC of viability dose-response curve
Details	NOMO1 [3]	P12-Ichikawa	SEM cells [4]
HPLM + 10% dialyzed FBS	459	467	448
RPMI 5 mM glucose + 10% FBS	466	460	473
RPMI 5 mM glucose + 10% dialyzed FBS	472	470	475

Reference: the supplement of paper PMC11451515
